In patent US20190100534A1, “Cephem Compounds with Latent Reactive Groups” (Gladius Pharmaceuticals, Inc., priority 2017, published 2019):

Columns and labels:
Assay in all cases: MIC determination, isogenic E. coli strains
Type in all cases: cell-based
E. coli J53 Alone = settings: for Mimimum Inhibitory Concentrations, J53 Alone: CAMH broth, 20 μM Apo-Transferrin, 37° C., 18 hours; for MIC: Escherichia coli, J53ALONE, 18 h, read-out: Mimimum Inhibitory Concentrations, J53 Alone
Description: (§1) Sterile technique was used throughout these experiments. Suspensions of organisms were removed from storage (−80° C.) and partially thawed. Partially thawed organisms (1 μL) were inoculated into 3 mL sterile LB Broth in a sterile culture tube and capped, then cultured at 37° C. with shaking for 4-5 hours until the optical density at 600 nm (OD600) was greater than 0.1 on a single beam spectrophotometer.
(§2) The concentration of organisms was adjusted to 0.08-0.1 OD600 (0.5 McFarland units) by dilution with sterile cation-adjusted Meuller-Hinton (CAMH) broth. The suspensions were used within 30 minutes of preparation.
(§3) A stock solution was made of each test compound by measuring 6.4 mg of the compound on an analytical balance and dissolving it in DMSO (1 mL) to get a transparent solution. The solutions were stored at −20° C. and thawed prior to use.
(§4) Sterile CAMH broth (200 μL) containing 20 μM Apo-Transferrin was pipetted into the first row of 8 columns of a sterile, round-bottomed, transparent, 96-well microplate using an 8-channel pipette equipped with sterile tips. One hundred μL was pipetted into the wells of the remaining 11 rows.
(§5) With an 8-channel pipette equipped with sterile tips, 100 μL of the first row solution was transferred to the second row and mixed. The process was repeated for the second to third rows and continued through row 11. One hundred μL from row 11 was removed and discarded so that all 12 rows contained 100 μL. Row 12 contained no compound and rows 1-11 contained 64, 32, 16, 8, 4, 2, 1, 0.5, 0.25, 0.125, […] of a given compound.
(§6) Inoculant suspensions (0.5 μL) were added to the 12 wells of each column. The plates were then covered and incubated at 37° C. overnight for 18 hours.
(§7) For each organism the MIC was determined by identifying the transparent well with the lowest test compound concentration.
(§8) The gene sequence for each beta-lactamase enzyme was synthesized and inserted into the pBC-SK(+) plasmid by GenScript, a commercial service. E. coli J53 was transformed with each plasmid via electroporation and resistant transformants were selected on agar plates containing 50 micrograms/mL ampicillin. The selected transformants were stored at −80 degrees C. in 20% glycerol.

[1] = tested on: Isogenic E. coli J58 strain carrying DHA-1; settings: for Mimimum Inhibitory Concentrations, DHA-1: isogenic E. coli strain, CAMH broth, 20 μM Apo-Transferrin, 37° C., 18 hours; for MIC: Escherichia coli, 18 h, read-out: Mimimum Inhibitory Concentrations, DHA-1
Description: as §1, §2, §3, §4, §5, §6, §7, §8

[2] = tested on: Isogenic E. coli J58 strain carrying TEM-26; settings: for Mimimum Inhibitory Concentrations, TEM-26: isogenic E. coli strain, CAMH broth, 20 μM Apo-Transferrin, 37° C., 18 hours; for MIC: Escherichia coli, 18 h, read-out: Mimimum Inhibitory Concentrations, TEM-26
Description: as §1, §2, §3, §4, §5, §6, §7
TEM-26 (Group 2be beta-lactamase, hydrolyzes extended spectrum cephalosporins and monobactams), [25];
as §8

[3] = tested on: Isogenic E. coli J58 strain carrying SHV-1; settings: for Mimimum Inhibitory Concentrations, SHV-1: isogenic E. coli strain, CAMH broth, 20 μM Apo-Transferrin, 37° C., 18 hours; for MIC: Escherichia coli, 18 h, read-out: Mimimum Inhibitory Concentrations, SHV-1
Description: as §1, §2, §3, §4, §5, §6, §7
SHV-1 (Class A, Group 2b beta-lactamase, hydrolyzes penicillins and early cephalosporins);
as §8

[4] = tested on: Isogenic E. coli J58 strain carrying CTX-M-14; settings: for Mimimum Inhibitory Concentrations, CTX-M-14: isogenic E. coli strain, CAMH broth, 20 μM Apo-Transferrin, 37° C., 18 hours; for MIC: Escherichia coli, 18 h, read-out: Mimimum Inhibitory Concentrations, CTX-M-14
Description: as §1, §2, §3, §4, §5, §6, §7
(§9) CTX-M-14 and CTX-M-15 (Class A, Group 2be beta-lactamases, hydrolyzes extended spectrum cephalosporins and monobactams);
as §8

[5] = tested on: Isogenic E. coli J58 strain carrying CTX-M-15; settings: for Mimimum Inhibitory Concentrations, CTX-M-15: isogenic E. coli strain, CAMH broth, 20 μM Apo-Transferrin, 37° C., 18 hours; for MIC: Escherichia coli, 18 h, read-out: Mimimum Inhibitory Concentrations, CTX-M-15
Description: as §1, §2, §3, §4, §5, §6, §7, §9, §8

[6] = tested on: Isogenic E. coli J58 strain carrying KPC-2; settings: for Mimimum Inhibitory Concentrations, KPC-2: isogenic E. coli strain, CAMH broth, 20 μM Apo-Transferrin, 37° C., 18 hours; for MIC: Escherichia coli, 18 h, read-out: Mimimum Inhibitory Concentrations, KPC-2
Description: as §1, §2, §3, §4, §5, §6, §7
(§10) KPC-2 and KPC-3 (Class A, Group 2f, carbapenemases);
as §8

[7] = tested on: Isogenic E. coli J58 strain carrying KPC-3; settings: for Mimimum Inhibitory Concentrations, KPC-3: isogenic E. coli strain, CAMH broth, 20 μM Apo-Transferrin, 37° C., 18 hours; for MIC: Escherichia coli, 18 h, read-out: Mimimum Inhibitory Concentrations, KPC-3
Description: as §1, §2, §3, §4, §5, §6, §7, §10, §8

[8] = tested on: Isogenic E. coli J58 strain carrying NDM-1; settings: for Mimimum Inhibitory Concentrations, NDM-1: isogenic E. coli strain, CAMH broth, 20 μM Apo-Transferrin, 37° C., 18 hours; for MIC: Escherichia coli, 18 h, read-out: Mimimum Inhibitory Concentrations, NDM-1
Description: as §1, §2, §3, §4, §5, §6, §7
NDM-1 (Group 3a carbapenemase, broad spectrum divalent Zn^++ metallo-Beta-Lactamase);
as §8

[9] = tested on: Isogenic E. coli J58 strain carrying VIM-2; settings: for Mimimum Inhibitory Concentrations, VIM-2: isogenic E. coli strain, CAMH broth, 20 μM Apo-Transferrin, 37° C., 18 hours; for MIC: Escherichia coli, 18 h, read-out: Mimimum Inhibitory Concentrations, VIM-2
Description: as §1, §2, §3, §4, §5, §6, §7
VIM-2 (Group 3a carbapenemase, metallo-beta-lactamase); and
as §8

[10] = tested on: Isogenic E. coli J58 strain carrying IMP-1; settings: for Mimimum Inhibitory Concentrations, IMP-1: isogenic E. coli strain, CAMH broth, 20 μM Apo-Transferrin, 37° C., 18 hours; for MIC: Escherichia coli, 18 h, read-out: Mimimum Inhibitory Concentrations, IMP-1
Description: as §1, §2, §3, §4, §5, §6, §7
IMP-1 (Group 3a carbapenemase, metallo-beta-Lactamase).
as §8

CC(C)(O/N=C(\C(=O)N[C@@H]1C(=O)N2C(C(=O)O)=C(C=Cc3ccc(C[n+]4ccc(O)c(O)c4)cc3)CS[C@H]12)c1csc(N)n1)C(=O)O (mixture of isomers) [Compound 443, 1-(4-((E/Z)-2-((6R,7R)-7-((Z)-2-(2-aminothiazol-4-yl)-2-(((2-carboxypropan-2-yl)oxy)imino)acetamido)-2-carboxy-8-oxo-5-thia-1-azabicyclo[4.2.0]oct-2-en-3-yl)vinyl)benzyl)-3,4-dihydroxypyridin-1-ium]
Mimimum Inhibitory Concentrations, J53 Alone (E. coli J53 Alone; Table 4-1): 0.13 microgram/mL
Mimimum Inhibitory Concentrations, J53 Alone (E. coli J53 Alone; Table 4-2): 0.13 microgram/mL
Mimimum Inhibitory Concentrations, DHA-1 [1]: 1 microgram/mL
Mimimum Inhibitory Concentrations, TEM-26 [2]: 2 microgram/mL
Mimimum Inhibitory Concentrations, SHV-1 [3]: 1 microgram/mL
Mimimum Inhibitory Concentrations, CTX-M-14 [4]: 0.25 microgram/mL
Mimimum Inhibitory Concentrations, CTX-M-15 [5]: 1 microgram/mL
Mimimum Inhibitory Concentrations, KPC-2 [6]: 8 microgram/mL
Mimimum Inhibitory Concentrations, KPC-3 [7]: 4 microgram/mL
Mimimum Inhibitory Concentrations, NDM-1 [8]: >64 microgram/mL
Mimimum Inhibitory Concentrations, VIM-2 [9]: 0.25 microgram/mL
Mimimum Inhibitory Concentrations, IMP-1 [10]: 4 microgram/mL

CC(C)(O/N=C(\C(=O)N[C@@H]1C(=O)N2C(C(=O)O)=C(C=Cc3ccc(C[N+]4(C)CCc5c(ccc(O)c5O)C4)cc3)CS[C@H]12)c1csc(N)n1)C(=O)O (mixture of isomers) [Compound 441, 2-(4-((E/Z)-2-((6R,7R)-7-((Z)-2-(2-aminothiazol-4-yl)-2-(((2-carboxypropan-2-yl)oxy)imino)acetamido)-2-carboxy-8-oxo-5-thia-1-azabicyclo[4.2.0]oct-2-en-3-yl)vinyl)benzyl)-5,6-dihydroxy-2-methyl-1,2,3,4-tetrahydroisoquinolin-2-ium]
MIC (E. coli J53 Alone): 0.25 µg/mL
Mimimum Inhibitory Concentrations, J53 Alone (E. coli J53 Alone; Table 4-2): 0.25 microgram/mL
MIC [1]: 0.5 µg/mL
MIC [2]: 1 µg/mL
MIC [3]: 1 µg/mL
MIC [4]: 1 µg/mL
MIC [5]: 0.5 µg/mL
MIC [6]: 4 µg/mL
MIC [7]: 1 µg/mL
MIC [8]: > 64 µg/mL
MIC [9]: 0.25 µg/mL
MIC [10]: 1 µg/mL

CC(C)(O/N=C(\C(=O)N[C@@H]1C(=O)N2C(C(=O)O)=C(C=Cc3ccc(C[N+]4(C)CCc5cc(O)c(O)cc5C4)cc3)CS[C@H]12)c1nsc(N)n1)C(=O)O (mixture of isomers) [Compound 437, 2-(4-((E/Z)-2-((6R,7R)-7-((Z)-2-(5-amino-1,2,4-thiadiazol-3-yl)-2-(((2-carboxypropan-2-yl)oxy)imino)acetamido)-2-carboxy-8-oxo-5-thia-1-azabicyclo[4.2.0]oct-2-en-3-yl)vinyl)benzyl)-6,7-dihydroxy-2-methyl-1,2,3,4-tetrahydroisoquinolin-2-ium]
Mimimum Inhibitory Concentrations, J53 Alone (E. coli J53 Alone; Table 4-1): 0.25 microgram/mL
Mimimum Inhibitory Concentrations, J53 Alone (E. coli J53 Alone; Table 4-2): 0.25 microgram/mL
Mimimum Inhibitory Concentrations, DHA-1 [1]: 0.5 microgram/mL
Mimimum Inhibitory Concentrations, TEM-26 [2]: 1 microgram/mL
Mimimum Inhibitory Concentrations, SHV-1 [3]: 2 microgram/mL
Mimimum Inhibitory Concentrations, CTX-M-14 [4]: 4 microgram/mL
Mimimum Inhibitory Concentrations, CTX-M-15 [5]: 0.5 microgram/mL
Mimimum Inhibitory Concentrations, KPC-2 [6]: 16 microgram/mL
Mimimum Inhibitory Concentrations, KPC-3 [7]: 2 microgram/mL
Mimimum Inhibitory Concentrations, NDM-1 [8]: >64 microgram/mL
Mimimum Inhibitory Concentrations, VIM-2 [9]: 1 microgram/mL
Mimimum Inhibitory Concentrations, IMP-1 [10]: 0.13 microgram/mL
MICs for an E. coli strain carrying the gene for carbapenemase IMP-1, in words ([10]; review of Tables 4-1 and 4-2): low microgram/mL MICs

COc1cc[n+](Cc2ccc(C=CC3=C(C(=O)O)N4C(=O)[C@@H](NC(=O)/C(=N\OC(C)(C)C(=O)O)c5csc(N)n5)[C@H]4SC3)cc2)cc1OC (mixture of isomers) [Compound 402, 1-(4-((E/Z)-2-((6R,7R)-7-((Z)-2-(2-aminothiazol-4-yl)-2-(((2-carboxypropan-2-yl)oxy)imino)acetamido)-2-carboxy-8-oxo-5-thia-1-azabicyclo[4.2.0]oct-2-en-3-yl)vinyl)benzyl)-3,4-dimethoxypyridin-1-ium]
MIC (E. coli J53 Alone): 0.5 µg/mL
Mimimum Inhibitory Concentrations, J53 Alone (E. coli J53 Alone; Table 4-2): 0.5 microgram/mL
MIC [1]: 1 µg/mL
MIC [2]: 4 µg/mL
MIC [3]: 2 µg/mL
MIC [4]: 4 µg/mL
MIC [5]: > 64 µg/mL
MIC [6]: 64 µg/mL
MIC [7]: 16 µg/mL
MIC [8]: > 64 µg/mL
MIC [9]: 4 µg/mL
MIC [10]: > 64 µg/mL
